Results reported in paper PMC8587756, “Spirostanol Saponins from Flowers of Allium Porrum and Related Compounds Indicating Cytotoxic Activity and Affecting Nitric Oxide Production Inhibitory Effect in Peritoneal Macrophages” (Molecules, 2021).
Where two headings read alike, the source gives them in different places.

Experiments:
mouse peritoneal cells = assay: Cell viability / cytotoxicity, LDH assay in mouse peritoneal cells; assay type: cell-based
Procedure: (§1) Biological effects of studied compounds were evaluated in vitro, using mouse (C57BL6, Charles River Deutschland, Sulzfeld, Germany) peritoneal cells. Animals, killed by cervical dislocation, were i.p. injected with 8 mL of sterile saline. Pooled peritoneal cells collected from mice (n = 4–6 in individual experiments) were washed, re-suspended in culture medium, and seeded into 96-well round-bottom microplates (Costar, Corning, NY, USA) in 100-μL volumes, 2 × 10^5 cells/well. All experimental variants were run in duplicate. […] Cultures were maintained at 37 °C, 5% CO2 in humidified incubator (Sanyo Electric Biomedical, Osaka, Japan).
(§2) Viability of cells was analysed using the LDH (lactate dehydrogenase) assay. It is based on the determination of lactate dehydrogenase activity released from the cytosol of damaged cells into cell supernatant. The supernatants were harvested at the interval of 22 h of culture, diluted 1:1, and mixed with an aliquot of the LDH kit (Sigma-Aldrich, St. Louis, MO, USA). After 30-min incubation in the dark at ambient temperature, the reaction was stopped with 2 N HCl. […] Triton (1%) was used to induce 100% cell death. All control and experimental variants were run in quadruplicate.

[1] = as above; assay type: cell-based
Procedure: as §1, §2

[2] = test system: NO production in mouse peritoneal cells; assay: Nitric oxide production induced by LPS and IFN-γ in mouse peritoneal cells (Griess reagent); assay type: cell-based; details: for effect on production of NO (in words): LPS + IFN-γ, 24 h, Figure 3B; for inhibitory effects (in words): tested up to 25 µM; for IC50: LPS 0.1 ng/mL + IFN-γ 5 ng/mL, nitrites at 24 h, read-out: Nitric Oxide, IC50 (95% Limits of Confidence)
Procedure: Biological effects of studied compounds were evaluated in vitro, using mouse (C57BL6, Charles River Deutschland, Sulzfeld, Germany) peritoneal cells. Animals, killed by cervical dislocation, were i.p. injected with 8 mL of sterile saline. Pooled peritoneal cells collected from mice (n = 4–6 in individual experiments) were washed, re-suspended in culture medium, and seeded into 96-well round-bottom microplates (Costar, Corning, NY, USA) in 100-μL volumes, 2 × 10^5 cells/well. All experimental variants were run in duplicate. Complete RPMI-1640 culture medium (Sigma-Aldrich, St. Louis, MO, USA) contained 10% heat-inactivated foetal bovine serum, 2 mM L-glutamine, 50 μg/mL gentamicin, and 5 × 10^−5 M 2-mercaptoethanol (all Sigma-Aldrich). Cultures were maintained at 37 °C, 5% CO2 in humidified incubator (Sanyo Electric Biomedical, Osaka, Japan). The Institution Animal Ethics Committee (No. 13/2006) approved the animal welfare and all experimental procedures.
High output NO production was induced by mixture of lipopolysaccharide (LPS from E. coli 0111:B4, 0.1 ng/mL; Sigma) and murine recombinant interferon-γ (IFN-γ, 5 ng/mL; R&D Systems, Minneapolis, MN, USA) in mouse peritoneal cells. Tested compounds were applied concomitantly with these priming stimuli. The concentration of nitrites in supernatants of cells was assayed at the interval of 24 h. It was detected in individual, cell-free samples (50 μL) incubated 5 min at ambient temperature with an aliquot of a Griess reagent (1% sulphanilamide/0.1% naphtylendiamine/2.5% H3PO4). The absorbance at 540 nm was recorded using a microplate spectrophotometer (Tecan, Grödig, Austria). A nitrite calibration curve was used to convert absorbance to μM nitrite.
Estimates of 50% inhibitory concentrations of compounds (IC50, and CC50), correlation analysis, and graphical presentation of data were done using the Prism program (GraphPad Software, San Diego, CA, USA).

[3] = test system: murine leukemia cells P388; parameters: method as in PMID 9836426; details: cancer murine leukemia cells P388; cited from earlier work
[4] = test system: murine monocyte/macrophage cell line J-774; parameters: method as in PMID 9358643; details: 24 h, MTT assay; cited from earlier work
[5] = test system: RAW 246.7 macrophages and lymphocytes; parameters: method as in PMID 26329920; details: different concentrations, 72 h, MTT assay; cited from earlier work
[6] = mouse peritoneal cells, LDH assay, 24 h, Figure 3A
[7] = C57BL6, mouse peritoneal cells, LDH assay, cultured 24 h (supernatants harvested at 22 h), read-out: Cytotoxicity CC50 (95% Limits of Confidence)

| Compound | cytotoxic effects in model immune cells (in words) (mouse peritoneal cells) | concentration at onset of cell viability decline (mouse peritoneal cells; [6]) | CC50 at 22 h ([1]; C57BL6, mouse) | effect on production of NO (in words) [2] | IC50 [2] | also measured |
| --- | --- | --- | --- | --- | --- | --- |
| C[C@@H]1CC[C@@]2(OC1)O[C@H]1CC3C4C[C@@H](O)C5C[C@@H](O[C@@H]6O[C@H](CO)[C@H](O[C@@H]7O[C@H](CO)[C@@H](O)[C@H](O[C@@H]8OC[C@@H](O)[C@H](O)[C@H]8O)[C@H]7O[C@@H]7O[C@H](CO)[C@@H](O)[C@H](O)[C@H]7O)[C@H](O)[C@H]6O)[C@H](O)C[C@]5(C)C4CC[C@]3(C)C1[C@@H]2C (stereo partly shown) [Compound 1, aginoside] | strong cytotoxic effects | approximately 4 µM | 11.1 µM | inhibited the production of NO |  | cytotoxicity IC50 [3]: 2.1 µg/mL |
| C[C@@H]1CC[C@@]2(OC1)O[C@H]1CC3C4CCC5C[C@@H](O[C@@H]6O[C@H](CO)[C@H](O[C@@H]7O[C@H](CO)[C@@H](O)[C@H](O[C@@H]8OC[C@@H](O)[C@H](O)[C@H]8O)[C@H]7O[C@@H]7O[C@H](CO)[C@@H](O)[C@H](O)[C@H]7O)[C@H](O)[C@H]6O)[C@H](O)C[C@]5(C)C4CC[C@]3(C)C1[C@@H]2C (stereo partly shown) [Compound 2, 6-deoxy-aginoside] | strong cytotoxic effects | approximately 4 µM | 5.7 µM | inhibited the production of NO |  |  |
| CC1CCC2(OC1)OC1CC3C4CC(O)C5CC(OC6OC(CO)C(OC7OC(CO)C(O)C(OC8OCC(O)C(O)C8O)C7OC7OC(CO)C(O)C(OC8OC(CO)C(O)C(O)C8O)C7O)C(O)C6O)C(O)CC5(C)C4CCC3(C)C1C2C (stereo not shown) [Compound 3] | strong cytotoxic effects | approximately 4 µM | 7.21 µM | inhibited the production of NO |  |  |
| CC1CC[C@@]2(OC1)O[C@H]1C[C@H]3[C@@H]4C[C@@H](O)C5C[C@@H](O)[C@H](O)C[C@]5(C)[C@H]4CC[C@]3(C)[C@H]1[C@@H]2C (stereo partly drawn) [Compound 4, spirostan-2α, 3β, 6β–triol] |  |  | > 100 µM |  |  | cytotoxicity (in words) [4]: did not show cytotoxicity; inhibitory effects (in words) [2]: devoid of any inhibitory effects |
| C[C@@H]1CC[C@@]2(OC1)O[C@H]1[C@@H](O)[C@H]3[C@@H]4CC[C@H]5C[C@@H](O[C@@H]6O[C@H](CO)[C@H](O[C@@H]7O[C@H](CO)[C@@H](O)[C@H](O[C@@H]8OC[C@@H](O)[C@H](O)[C@H]8O)[C@H]7O[C@@H]7O[C@H](CO)[C@H](O)[C@H](O[C@@H]8O[C@H](CO)[C@@H](O)[C@H](O)[C@H]8O)[C@H]7O)[C@H](O)[C@H]6O)[C@H](O)C[C@]5(C)[C@H]4CC[C@]3(C)[C@H]1[C@@H]2C [Compound 5, digitonin, reference compound] |  | approximately 4 µM |  | inhibited the production of NO | 5.52 µM | cytotoxic effects in model immune cells (in words) (mouse peritoneal cells; [6]): strong cytotoxic effects; CC50 at 22 h [1, 7]: 5.83 µM |
| C[C@@H]1CC[C@@]2(OC1)O[C@H]1C[C@H]3[C@@H]4CC=C5C[C@@H](O)CC[C@]5(C)[C@H]4CC[C@]3(C)[C@H]1[C@@H]2C [Compound 7, diosgenin] |  |  |  |  | > 100 µM | cytotoxicity (in words) [5]: No changes in cytotoxicity; CC50 at 22 h [1, 7]: > 100 µM; inhibitory effects (in words) [2]: devoid of any inhibitory effects |
| C[C@@H]1CC[C@@]2(OC1)O[C@H]1C[C@H]3[C@@H]4CC=C5C[C@@H](O[C@@H]6O[C@H](CO)[C@@H](O[C@@H]7O[C@@H](C)[C@H](O)[C@@H](O)[C@H]7O)[C@H](O)[C@H]6O[C@@H]6O[C@@H](C)[C@H](O)[C@@H](O)[C@H]6O)CC[C@]5(C)[C@H]4CC[C@]3(C)[C@H]1[C@@H]2C [dioscin, reference compound] |  |  |  |  |  | cytotoxicity IC50 [3]: 0.092 µg/mL |
| tomatonin [Compound 6, reference compound] |  | approximately 4 µM |  | inhibited the production of NO | 7.19 µM | cytotoxic effects in model immune cells (in words) (mouse peritoneal cells; [6]): strong cytotoxic effects; CC50 (mouse peritoneal cells; mouse peritoneal cells, LDH assay, cultured 24 h (supernatants harvested at 22 h), read-out: Cytotoxicity CC50 (95% Limits of Confidence)): 9.9 µM |
